pIC50: −log10 of the molar value. Like-named read-outs stand apart in the source and are kept apart here.
Columns and labels:
[1] = system: K. pneumoniae 6299; experiment: MIC of compound alone, broth microdilution; format: cell-based; details: strain 6299: K. pneumoniae, TEM-1, SHV-11, OXA-163; for MIC: Klebsiella pneumoniae, read-out: MIC compounds of the invention alone
In short: (§1)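 Step one, log-phase suspension set to 5×10^5 cfu/mL final in CA-MHB. Step two, incubation at 35° C under ambient air for 16-20 h. Step three, visual reading of the lowest growth-free concentration as MIC.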

[2] = system: K. pneumoniae BAA-1898; experiment: MIC of compound alone, broth microdilution; format: cell-based; details: strain BAA-1898: K. pneumoniae, TEM-1, SHV-11, SHV-12, KPC-2; for MIC: Klebsiella pneumoniae, BAA1898, read-out: MIC compounds of the invention alone
In short: as §1

[3] = system: E. coli UFR32; experiment: MIC of compound alone, broth microdilution; format: cell-based; details: strain UFR32: E. coli, TEM-1, VEB-1, OXA-10; for MIC: Escherichia coli, read-out: MIC compounds of the invention alone
In short: as §1

[4] = system: E. cloacae UFR70; experiment: MIC of compound alone, broth microdilution; format: cell-based; details: strain UFR70: E. cloacae, TEM-1, CTX-M-15, CMY-2, OXA-1, Porin loss; for MIC: Enterobacter cloacae, read-out: MIC compounds of the invention alone
In short: as §1

[5] = system: K. pneumoniae UFR68; experiment: MIC of compound alone, broth microdilution; format: cell-based; details: strain UFR68: K. pneumoniae, TEM-1, SHV-11, CTX-M-15, KPC-3; for MIC: Klebsiella pneumoniae, read-out: MIC compounds of the invention alone
In short: as §1

[6] = system: E. cloacae 260508; experiment: MIC of compound alone, broth microdilution; format: cell-based; details: strain 260508: E. cloacae, TEM-1, CTX-M-15; for MIC: Enterobacter cloacae, read-out: MIC compounds of the invention alone
In short: as §1

[7] = system: K. pneumoniae 200047; experiment: MIC of compound alone, broth microdilution; format: cell-based; details: strain 200047: K. pneumoniae, TEM-1, SHV-32, CTX-M-15, OXA-1; for MIC: Klebsiella pneumoniae, read-out: MIC compounds of the invention alone
In short: as §1

[8] = system: E. coli UFR61O; experiment: MIC of compound alone, broth microdilution; format: cell-based; details: strain UFR61O: E. coli, TEM-1, KPC-2; for MIC: Escherichia coli, read-out: MIC compounds of the invention alone
In short: as §1

[9] = system: E. coli 131119; experiment: MIC of compound alone, broth microdilution; format: cell-based; details: strain 131119: E. coli, TEM-1, OXA-48; for MIC: Escherichia coli, read-out: MIC compounds of the invention alone
In short: as §1

[10] = system: E. coli UFR41; experiment: MIC of compound alone, broth microdilution; format: cell-based; details: strain UFR41: E. coli, TEM-1, CTX-M-15, CMY-2, OXA-1, NDM-4; for MIC: Escherichia coli, read-out: MIC compounds of the invention alone
In short: as §1

[11] = system: E. cloacae UFR85; experiment: MIC of compound alone, broth microdilution; format: cell-based; details: strain UFR85: E. cloacae, TEM-1, CTX-M-15, AmpC; for MIC: Enterobacter cloacae, read-out: MIC compounds of the invention alone
In short: as §1

[12] = system: E. cloacae UFR51; experiment: MIC of compound alone, broth microdilution; format: cell-based; details: strain UFR51: E. cloacae, SHV-12, IMP-8; for MIC: Enterobacter cloacae, read-out: MIC compounds of the invention alone
In short: as §1

[13] = system: E. coli UFR39; experiment: MIC of compound alone, broth microdilution; format: cell-based; details: for MIC: Escherichia coli, UFR39, read-out: MIC compounds of the invention alone
In short: as §1

[14] = system: E. coli 190317; experiment: MIC of compound alone, broth microdilution; format: cell-based; details: strain 190317: E. coli, TEM-1, SHV-12, CTX-M-15, OXA-1; for MIC: Escherichia coli, read-out: MIC compounds of the invention alone
In short: as §1

[15] = system: E. cloacae P99; experiment: MIC of compound alone, broth microdilution; format: cell-based; details: strain P99: E. cloacae, AmpC; for MIC: Enterobacter cloacae, read-out: MIC compounds of the invention alone
In short: as §1

[16] = system: K. pneumoniae 160143; experiment: MIC of compound alone, broth microdilution; format: cell-based; details: strain 160143: K. pneumoniae, TEM-1, SHV-1, CTX-M-15, KPC-2, OXA-1; for MIC: Klebsiella pneumoniae, read-out: MIC compounds of the invention alone
In short: as §1

[17] = system: K. oxytoca UFR21; experiment: MIC of compound alone, broth microdilution; format: cell-based; details: strain UFR21: K. oxytoca, TEM-1, CTX-M-15, OXA-48; for MIC: Klebsiella oxytoca, read-out: MIC compounds of the invention alone
In short: as §1

[18] = system: K. pneumoniae UFR24; experiment: MIC of compound alone, broth microdilution; format: cell-based; details: strain UFR24: K. pneumoniae, TEM-1, SHV-2, SHV-11, OXA-1, OXA-48, OXA-47; for MIC: Klebsiella pneumoniae, read-out: MIC compounds of the invention alone
In short: as §1

[19] = system: E. coli UFR74; experiment: MIC of compound alone, broth microdilution; format: cell-based; details: strain UFR74: E. coli, SHV-1, DHA-1; for MIC: Escherichia coli, read-out: MIC compounds of the invention alone
In short: as §1

[20] = system: E. coli UFR18; experiment: MIC of compound alone, broth microdilution; format: cell-based; details: strain UFR18: E. coli, CTX-M-15, OXA-204; for MIC: Escherichia coli, read-out: MIC compounds of the invention alone
In short: as §1

[21] = system: K. pneumoniae UFR77; experiment: MIC of compound alone, broth microdilution; format: cell-based; details: strain UFR77: K. pneumoniae, CMY-2; for MIC: Klebsiella pneumoniae, read-out: MIC compounds of the invention alone
In short: as §1

[22] = system: P. aeruginosa CIP107051; experiment: MIC of compound alone, broth microdilution; format: cell-based; details: strain CIP107051: P. aeruginosa, TEM-24; for MIC: Pseudomonas aeruginosa, read-out: MIC compounds of the invention alone
In short: as §1

[23] = molecular target: OXA-11 (Pseudomonas aeruginosa, UniProt Q06778)
[24] = molecular target: SHV-1 (Klebsiella pneumoniae, UniProt P0AD64)
[25] = molecular target: OXA-1 (Escherichia coli, UniProt P13661)

SMILES: O=C1N2CC(n3ccsc3=O)=CC(C2)N1OS(=O)(=O)[O-].[Na+] (centres unmarked) [Example 1, Sodium [7-oxo-3-(2-oxo-thiazol-3-yl)-1,6-diaza-bicyclo[3.2.1]oct-3-en-6-yl]sulfate]
- MIC [1]: 32 µg/mL
- MIC [2]: 8 µg/mL
- MIC [3]: 4 µg/mL
- MIC [4]: 4 µg/mL
- MIC [5]: 8 µg/mL
- MIC [6]: 4 µg/mL
- MIC [7]: 8 µg/mL
- MIC [8]: 16 µg/mL
- MIC [9]: 2 µg/mL
- MIC [10]: 4 µg/mL
- MIC [11]: 4 µg/mL
- MIC [12]: 4 µg/mL
- MIC [13]: 2 µg/mL
- MIC [14]: 2 µg/mL
- MIC [15]: 4 µg/mL
- MIC [16]: 4 µg/mL
- MIC [17]: 8 µg/mL
- MIC [18]: 16 µg/mL
- MIC [19]: 16 µg/mL
- MIC [20]: 2 µg/mL
- MIC [21]: 8 µg/mL
- MIC [22]: > 32 µg/mL
- pIC50 [23]: 7.04
- pIC50 [24]: 8.82
- pIC50 [25]: 6.92

SMILES: O=C1N2CC(n3ccnn3)=CC(C2)N1OS(=O)(=O)[O-].[Na+] (centres unmarked) [Example 2, sodium [7-oxo-3-(triazol-1-yl)-1,6-diazabicyclo[3.2.1]oct-3-en-6-yl]sulfate]
- MIC compounds of the invention alone [1]: 4 µg/mL
- MIC compounds of the invention alone [2]: 2 µg/mL
- MIC compounds of the invention alone [3]: 1 µg/mL
- MIC compounds of the invention alone [4]: 1 µg/mL
- MIC compounds of the invention alone [5]: 4 µg/mL
- MIC compounds of the invention alone [6]: 2 µg/mL
- MIC compounds of the invention alone [7]: 2 µg/mL
- MIC compounds of the invention alone [8]: 4 µg/mL
- MIC compounds of the invention alone [9]: 1 µg/mL
- MIC compounds of the invention alone [10]: 2 µg/mL
- MIC compounds of the invention alone [11]: 1 µg/mL
- MIC compounds of the invention alone [12]: 2 µg/mL
- MIC compounds of the invention alone ([13]; strain UFR39: E. coli, CTX-M-15, NDM-1): 1 µg/mL
- MIC compounds of the invention alone [14]: 1 µg/mL
- MIC compounds of the invention alone [15]: 1 µg/mL
- MIC compounds of the invention alone [16]: 2 µg/mL
- MIC compounds of the invention alone [17]: 2 µg/mL
- MIC compounds of the invention alone [18]: 4 µg/mL
- MIC compounds of the invention alone [19]: 2 µg/mL
- MIC compounds of the invention alone [20]: 1 µg/mL
- MIC compounds of the invention alone [21]: 2 µg/mL
- MIC compounds of the invention alone [22]: >32 µg/mL
- pIC50 ([23]; read-out: IC50 β-lactamase OXA-11, class (D), nitrocefin 200 μM, 30-min pre-incubation, enzyme 1.2 nM): 7.40
- pIC50 ([24]; read-out: IC50 β-lactamase SHV-1, class (A), nitrocefin 200 μM, 30-min pre-incubation, enzyme 0.075 nM): 8.40
- pIC50 ([25]; read-out: IC50 β-lactamase OXA-1, class (D), nitrocefin 200 μM, 30-min pre-incubation, enzyme 0.2 nM): 7.24

SMILES: O=C1N2CC(n3nccn3)=CC(C2)N1OS(=O)(=O)O (centres unmarked) [Example 3, sodium [7-oxo-3-(triazol-2-yl)-1,6-diazabicyclo[3.2.1]oct-3-en-6-yl]sulfate]
- MIC [1]: 16 µg/mL
- MIC [2]: 8 µg/mL
- MIC [3]: 2 µg/mL
- MIC [4]: 4 µg/mL
- MIC [5]: 8 µg/mL
- MIC [6]: 4 µg/mL
- MIC [7]: 4 µg/mL
- MIC [8]: 8 µg/mL
- MIC [9]: 1 µg/mL
- MIC [10]: 16 µg/mL
- MIC [11]: 4 µg/mL
- MIC [12]: 2 µg/mL
- MIC [13]: 8 µg/mL
- MIC [14]: 2 µg/mL
- MIC [15]: 8 µg/mL
- MIC [16]: 4 µg/mL
- MIC [17]: 8 µg/mL
- MIC [18]: 8 µg/mL
- MIC [19]: 8 µg/mL
- MIC [20]: 2 µg/mL
- MIC [21]: 4 µg/mL
- MIC [22]: > 32 µg/mL
- pIC50 [23]: 7.07
- pIC50 [24]: 8.01
- pIC50 [25]: 6.70

SMILES: O=C1N2CC(n3cncn3)=CC(C2)N1OS(=O)(=O)[O-].[Na+] (centres unmarked) [Example 5, sodium [7-oxo-3-(1,2,4-triazol-1-yl)-1,6-diazabicyclo[3.2.1]oct-3-en-6-yl]sulfate]
- MIC [1]: 4 µg/mL
- MIC [2]: 4 µg/mL
- MIC [3]: 2 µg/mL
- MIC [4]: 2 µg/mL
- MIC [5]: 4 µg/mL
- MIC [6]: 4 µg/mL
- MIC [7]: 2 µg/mL
- MIC [8]: 8 µg/mL
- MIC [9]: 2 µg/mL
- MIC [10]: 4 µg/mL
- MIC [11]: 4 µg/mL
- MIC [12]: 4 µg/mL
- MIC [13]: 2 µg/mL
- MIC [14]: 1 µg/mL
- MIC [15]: 4 µg/mL
- MIC [16]: 2 µg/mL
- MIC [17]: 4 µg/mL
- MIC [18]: 2 µg/mL
- MIC [19]: 4 µg/mL
- MIC [20]: 2 µg/mL
- MIC [21]: 4 µg/mL
- MIC [22]: > 32 µg/mL
- pIC50 [23]: 7.85
- pIC50 [24]: 8.36
- pIC50 [25]: 7.31

SMILES: O=C1N2CC(n3ccnn3)=C[C@H](C2)N1OS(=O)(=O)O [Example 6, sodium [(5R)-7-oxo-3-(triazol-1-yl)-1,6-diazabicyclo[3.2.1]oct-3-en-6-yl]sulfate]
- MIC [1]: 2 µg/mL
- MIC [2]: 2 µg/mL
- MIC [3]: 0.5 µg/mL
- MIC [4]: 0.5 µg/mL
- MIC [5]: 1 µg/mL
- MIC [6]: 1 µg/mL
- MIC [7]: 1 µg/mL
- MIC [8]: 2 µg/mL
- MIC [9]: 0.5 µg/mL
- MIC [10]: 2 µg/mL
- MIC [11]: 1 µg/mL
- MIC [12]: 1 µg/mL
- MIC [13]: 1 µg/mL
- MIC [14]: 0.5 µg/mL
- MIC [15]: 1 µg/mL
- MIC [16]: 1 µg/mL
- MIC [17]: 1 µg/mL
- MIC [18]: 1 µg/mL
- MIC [19]: 1 µg/mL
- MIC [20]: 0.5 µg/mL
- MIC [21]: 1 µg/mL
- MIC [22]: 32 µg/mL
- pIC50 [23]: 7.68
- pIC50 [24]: 8.72
- pIC50 [25]: 7.51

From patent US10722520B2, “Heterocyclic compounds and their use in preventing or treating bacterial infections” (MUTABILIS, priority 2016, dated 2020)
